Legend:
[1] = system: Involucrin; experiment: Expression of proliferation marker protein involucrin in NHEK cells (Western); type: cell-based, human; settings: 5 days, control regarded as 50%
Method: (§1) Normal human epidermal keratinocytes from neonatal foreskin (NHEK cells) were prepared into 2.5×10^5 cells/mL with EpiLife medium, inoculated to 12-well plates in a volume of 1 mL/well, and cultured at 37° C. for one day under a 5% v/v CO2 condition. Thereafter, each supernatant was removed, and a medium, to which ascorbic acid 2-glucoside had been added to give a final concentration of 300 or 600 μM, was added to the resulting cells in a volume of 1 mL/well, followed by culturing the cells at 37° C. for two days under a 5% v/v CO2 condition. Another cell culture system, which had been similarly cultured in a medium free of ascorbic acid 2-glucoside, was provided as a control. The cells cultured with ascorbic acid 2-glucoside were further added with a medium supplemented with the same concentration of sodium salt of ascorbic acid 2-glucoside as that in the above medium in a volume of 1 mL/well, and cultured for another three days under the same conditions. […] Each of the resulting extract was centrifuged to collect a supernatant, and a part of which was subjected to protein quantification. […]

[2] = system: Filaggrin; experiment: Expression of proliferation marker protein filaggrin in NHEK cells (Western); type: cell-based, human; settings: 5 days, control regarded as 50%
Method: as §1

[3] = system: hyaluronic acid; experiment: Hyaluronic acid production in NHEK cells (ELISA); type: cell-based, human; settings: 3 days, control 1003 ± 111.6
From the text: In accordance with “Evaluation Method for Enhancing Hyaluronic acid Synthesis” disclosed in “Evaluation and Experimental Manual for Humectancy, Skin whitening, Anti-wrinkle, and Anti-oxidation”, edited by Hitoshi Masaki, published by Fragrance Journal, pp. 94 to 97, 2012, NHEK cells as a model for typical normal human epidermal cells were suspended in EpiLife medium (pH 7.4), commercialized by Invitrogen Corporation, Calif., USA, inoculated to 12-well microplates at a cell density of 5×10^4 cells/well, and incubated overnight under conditions of 37° C. and 5% v/v CO2. Thereafter, the cell culture medium was replaced with a fresh HuMedia-KG2 medium commercialized by Kurabo Industries Ltd., Osaka, Japan; and “AA2G”, a particulate composition containing anhydrous crystalline ascorbic acid 2-glucoside, commercialized by Hayashibara Co., Ltd., Okayama, Japan, was added to each well to give a final concentration of 0.25, 0.5, or 1 mM, followed by culturing the cells for three days under the conditions of 37° C. and 5% v/v CO2. After completion of the culture, the supernatant in each well was immediately collected and quantified for hyaluronic acid by “Hyaluronan, DuoSet Kit”, product code: DY3614, a product name of a commercialized enzyme-linked immunosorbent assay (ELISA) purchased from R & D Systems, Minneapolis, USA. As a control, there was provided a culture system, where cells are cultured similarly as above except for not adding ascorbic acid 2-glucoside.

[4] = pH of aqueous solutions of compositions; type: physicochemical; settings: 2 g (d.s.b.) dissolved in 20 mL refined water; ratio by mass (anhydrous crystalline sodium salt):(anhydrous crystal)
[5] = system: Dickkopf-1 (DKK1); experiment: Production of DKK1 in NHDF cells (ELISA); type: cell-based, human; settings: for DKK1 Production level, First day: n=3, control 0.115 ± 0.012; for DKK1 Production level, Third day: n=3, control 0.217 ± 0.021
Method: NHDF Cells, which had been diluted with a culture medium to give a cell density of 1×10^4 cells/well, were inoculated to 96-well plates. At 24 hours after the inoculation, the supernatant in each well of the plates was removed, followed by adding ascorbic acid 2-glucoside to each well of the plates to give a final concentration of 0.5, 1, 2, 4, or 8 mM. As a control, a cell culture system with no addition of ascorbic acid 2-glucoside was provided. At the first and third days of culturing after the addition of ascorbic acid 2-glucoside, the supernatant in each well of the plates was collected and quantified (n=3) for DKK1 with “RayBio”, a product name of an ELISA for DKK1 assay, commercialized by RayBiotech Inc., Georgia, USA. Statistical analysis of the data was performed by t-test (see “Kiso-Tokeigaku (Basic Statistics) III Statistics of Natural Science”, page 187, 2008, edited by University of Tokyo Press).

O=C1O[C@H]([C@@H](O)CO)C(O)=C1O[C@H]1O[C@H](CO)[C@@H](O)[C@H](O)[C@H]1O [ascorbic acid 2-glucoside, 2-O-α-D-glucosyl-L-ascorbic acid]
Relative expression level, Involucrin ([1]; 300 μM, calibrated with α-Tubulin): 74% | Relative expression level, Involucrin ([1]; 600 μM): 84% | Relative expression level, Filaggrin ([2]; 300 μM): 65% | Relative expression level, Filaggrin ([2]; 600 μM): 71% | Hyaluronic acid concentration in culture supernatant ([3]; 0.25 mM): 1222 ± 93.6 ng/mL | Hyaluronic acid concentration in culture supernatant ([3]; 0.5 mM): 1268 ± 125.2 ng/mL | Hyaluronic acid concentration in culture supernatant ([3]; 1 mM): 1436 ± 216 ng/mL | pH [4]: 1.7 | DKK1 Production level, First day ([5]; 0.5 mmol/L): 0.117 ± 0.018 ng/mL | DKK1 Production level, Third day ([5]; 0.5 mmol/L): 0.317 ± 0.035 ng/mL | DKK1 Production level, First day ([5]; 1 mmol/L): 0.129 ± 0.017 ng/mL | DKK1 Production level, Third day ([5]; 1 mmol/L): 0.315 ± 0.042 ng/mL | DKK1 Production level, First day ([5]; 2 mmol/L): 0.149 ± 0.037 ng/mL | DKK1 Production level, Third day ([5]; 2 mmol/L): 0.339 ± 0.030 ng/mL | DKK1 Production level, First day ([5]; 4 mmol/L): 0.146 ± 0.016 ng/mL | DKK1 Production level, Third day ([5]; 4 mmol/L): 0.392 ± 0.014 ng/mL | DKK1 Production level, First day ([5]; 8 mmol/L): 0.179 ± 0.032 ng/mL | DKK1 Production level, Third day ([5]; 8 mmol/L): 0.413 ± 0.033 ng/mL

Reference: patent publication US10111822B2, “External dermal composition for anti-ageing and method for producing the same” (Hayashibara Co., Ltd., priority 2012, dated 2018)
